Measurements as given in ChEMBL document CHEMBL6115007, “Synthesis and in vitro and in vivo evaluation of novel bivalent quinolines as antitumor agents via targeting autophagy in cervical cancer” (Eur J Med Chem, 2025).
The source made the active and inactive calls. The rule behind the calls is not given here.

Assays:
[1] = tested on: Ca-Ski; assay: Induction of apoptosis in human Ca Ski cells assessed as viable cells at 1 uM preincubated with Z-VAD-FMK for 1 hrs followed by compound addition and measured after 24 hrs by Annexin V-FITC/PI staining based flow cytometric analysis (reference value: 90.2 %); format: functional; conditions: read-out: Activity
[2] = tested on: HeLa; assay: Antitumor activity against human HeLa cells xenografted in female BALB/c mouse assessed as inhibition of tumor progression at 4 to 8 mg/kg administered every four days and measured after 26 days by imaging analysis; format: functional, organism-based; conditions: dose 4-8 mg/kg, time 26.0 day
[3] = tested on: HeLa; assay: Induction of morphological changes in human HeLa cells assessed as increase in inflated cell appearance at 0.6 to 2.4 uM by microphotographic analysis; format: functional, cell-based; conditions: dose 0.6-2.4 µM
[4] = tested on: Ca-Ski; assay: Induction of morphological changes in human Ca Ski cells assessed as increase in inflated cell appearance at 0.5 to 2 uM by microphotographic analysis; format: functional, cell-based; conditions: dose 0.5-2 µM
[5] = tested on: HeLa; assay: Antitumor activity against human HeLa cells xenografted in female BALB/c mouse assessed as reduction in tumor weight at 4 mg/kg administered every four days and measured after 26 days relative to control; format: functional; parameters: scale not given: the % may be the effect or the level left; conditions: time 26 day
[6] = tested on: HeLa; assay: Effect on cleaved caspase 3 expression level in p53 deficient human HeLa cells at 0.6 to 1.2 uM incubated for 24 hrs by Western blot analysis; format: functional, cell-based; conditions: dose 0.6-1.2 µM
[7] = tested on: Ca-Ski; assay: Inhibition of colony formation in ATG7 deficient human Ca Ski cells at 0.1 to 0.4 uM incubated for 24 hrs by crystal violet staining based analysis; format: functional, cell-based; conditions: dose 0.1-0.4 µM
[8] = tested on: HeLa; assay: Effect on cleaved PARP expression level in human HeLa cells at 0.3 to 1.2 uM incubated for 24 hrs by Western blot analysis; format: functional, cell-based; conditions: dose 0.3-1.2 µM
[9] = tested on: HeLa; assay: Effect on ATG16L1 protein level in human HeLa cells at 0.6 to 1.2 uM incubated for 24 hrs by Western blot analysis; format: functional, cell-based; conditions: dose 0.6-1.2 µM
[10] = tested on: Ca-Ski; assay: Inhibition of cell migration in human Ca Ski cells at 0.5 to 1 uM measured after 24 hrs by transwell migration assay; format: functional, cell-based; conditions: dose 0.5-1 µM
[11] = tested on: Ca-Ski; assay: Effect on cleaved caspase 3 expression level in human Ca Ski cells at 0.25 to 1 uM incubated for 24 hrs by Western blot analysis; format: functional, cell-based; conditions: dose 0.25-1 µM
[12] = tested on: Ca-Ski; assay: Effect on cleaved PARP expression level in human Ca Ski cells at 0.25 to 1 uM incubated for 24 hrs by Western blot analysis; format: functional, cell-based; conditions: dose 0.25-1 µM
[13] = tested on: Ca-Ski; assay: Induction of autophagy in ATG7 deficient human Ca Ski cells assessed as increase in LC3-II expression at 0.5 to 1 uM incubated for 24 hrs by Western blot analysis; format: functional, cell-based; conditions: dose 0.5-1 µM
[14] = tested on: HeLa; assay: Effect on caspase 3 expression level in Bax deficient human HeLa cells at 0.6 to 1.2 uM incubated for 24 hrs by Western blot analysis; format: functional, cell-based; conditions: dose 0.6-1.2 µM
[15] = tested on: SiHa; assay: Induction of morphological changes in human SiHa cells assessed as increase in inflated cell appearance at 0.5 to 2 uM by microphotographic analysis; format: functional, cell-based; conditions: dose 0.5-2 µM
[16] = tested on: Ca-Ski; assay: Induction of apoptosis in human Ca Ski cells assessed as early apoptotic cells at 1 uM preincubated with Z-VAD-FMK for 1 hrs followed by compound addition and measured after 24 hrs by Annexin V-FITC/PI staining based flow cytometric analysis (reference value: 2.91 %); format: functional
[17] = tested on: HeLa; assay: Induction of autophagy in human HeLa cells assessed as increase in LC3-II accumulation at 0.6 uM incubated for 3 to 48 hrs by Western blot analysis; format: functional, cell-based; conditions: time 3-48 hrs
[18] = tested on: HeLa; assay: Induction of apoptosis in human HeLa cells assessed as late apoptotic cells at 0.6 uM incubated for 24 hrs by Annexin V-FITC/PI staining based flow cytometric analysis (reference value: 0.94 %); format: functional
[19] = tested on: HeLa; assay: Induction of apoptosis in human HeLa cells assessed as necrotic cells at 1.2 uM preincubated with Z-VAD-FMK for 1 hrs followed by compound addition and measured after 24 hrs by Annexin V-FITC/PI staining based flow cytometric analysis (reference value: 2.16 %); format: functional
[20] = Toxicity in female BALB/c mouse xenografted with human HeLa cells assessed as effect on ALT level at 4 to 8 mg/kg administered every four days and measured after 26 days; format: organism-based; conditions: in vivo, 624 h, dose 4-8 mg/kg, time 26 day

Question: Which viability at 1 µM [1] does the source give for `COc1cccc(Nc2ccnc3cc(OCCCCCOc4ccc5c(Nc6cccc(OC)c6)ccnc5c4)ccc23)c1` here?
Answer: 86.1%

Question: What about the Activity [2] of the same compound?
Answer: Active

Question: What about the Activity [3] of the same compound?
Answer: Active

Question: And the Activity [4]?
Answer: Active

Question: What about the Activity [5] of the same compound?
Answer: 46.27%

Question: What about the Activity [6] of the same compound?
Answer: inactive

Question: And the inhibition [7]?
Answer: Minimal_effect

Question: And the Activity [8]?
Answer: inactive

Question: And the Activity [9]?
Answer: inactive

Question: What about the inhibition [10] of the same compound?
Answer: Active

Question: And the Activity [11]?
Answer: inactive

Question: What about the Activity [12] of the same compound?
Answer: inactive

Question: What about the Activity [13] of the same compound?
Answer: inactive

Question: And the Activity [14]?
Answer: inactive

Question: What about the Activity [15] of the same compound?
Answer: Active

Question: And the Activity [16]?
Answer: 5.56%

Question: What about the Activity [17] of the same compound?
Answer: Active

Question: What about the Activity [18] of the same compound?
Answer: 2.27%

Question: And the Activity [19]?
Answer: 1.49%

Question: What about the Activity [20] of the same compound?
Answer: Non-toxic
